Here are results for 14 molecules from ChEMBL document CHEMBL4725310, “Orally bioavailable HCV NS5A inhibitors of unsymmetrical structural class” (Bioorg Med Chem Lett, 2020).

pEC50: −log10 of the molar value. Values after ≈ are worked out from the molar mass of the structure shown.

Data set [1] can be described thus: Apparent permeability of compound in human Caco-2 cells. It counts as ADME, cell-based. In general terms: Passage across Caco-2 layers is used to estimate intestinal permeability.
A short description of data set [2]: Solubility of compound in JP 1st fluid at pH 1.2. Format: physicochemical.
Data set [3] concerns the target T1, Nonstructural protein 5A (Hepatitis C virus, UniProt Q5L478).
T1 sequence (Q5L478 whole entry): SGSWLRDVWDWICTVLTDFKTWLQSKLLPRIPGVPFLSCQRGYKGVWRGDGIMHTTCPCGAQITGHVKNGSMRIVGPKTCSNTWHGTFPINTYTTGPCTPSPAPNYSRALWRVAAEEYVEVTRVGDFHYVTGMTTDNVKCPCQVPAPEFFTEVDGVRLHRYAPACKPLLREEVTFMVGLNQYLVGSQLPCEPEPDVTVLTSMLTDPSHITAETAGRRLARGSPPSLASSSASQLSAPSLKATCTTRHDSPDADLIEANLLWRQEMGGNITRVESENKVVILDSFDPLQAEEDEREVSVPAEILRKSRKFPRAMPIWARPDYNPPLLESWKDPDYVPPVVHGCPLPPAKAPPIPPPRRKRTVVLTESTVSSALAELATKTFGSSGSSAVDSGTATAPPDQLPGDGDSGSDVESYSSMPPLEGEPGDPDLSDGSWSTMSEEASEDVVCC
Kind of data set: Inhibition of Hepatitis C virus 1a NS5A. Also on record: species or system Hepatitis C virus subtype 1a.

The nature of data set [4]: Oral bioavailability in Sprague-Dawley rat at 3 mg/kg. The conditions noted are these: in vivo. Format: ADME, organism-based.
Data set [5] has as its target T1, Nonstructural protein 5A. Kind of data set: Inhibition of Hepatitis C virus 1b NS5A. Further details: species or system Hepatitis C virus subtype 1b.
Data set [6] concerns the target T1, Nonstructural protein 5A. Kind of data set: Inhibition of Hepatitis C virus 3a NS5A. Also on record: species or system Hepatitis C virus subtype 3a.
Data set [7] deals with T1, Nonstructural protein 5A. Kind of data set: Inhibition of Hepatitis C virus 1a NS5A Q30R mutant. Further details: species or system Hepatitis C virus subtype 1a.
In data set [8] the target is Nonstructural protein 5A (Hepatitis C virus, UniProt Q5L478, Q30E). Kind of data set: Inhibition of Hepatitis C virus 1a NS5A Q30E mutant. Further details: species or system Hepatitis C virus subtype 1a.
Data set [9] addresses T1, Nonstructural protein 5A. As to the kind of experiment: Inhibition of Hepatitis C virus 2a NS5A. Also on record: species or system Hepatitis C virus subtype 2a.
Data set [10] can be described thus: Inhibition of Hepatitis C virus 1a NS5A Q30K mutant. Further details: species or system Hepatitis C virus subtype 1a.
The target of data set [11] is T1, Nonstructural protein 5A. As to the kind of experiment: Inhibition of Hepatitis C virus 1a H77 NS5A. Also on record: species or system Hepatitis C virus subtype 1a.

As to `CCCCCOC(=O)N[C@@H]1CCN(C(=O)N[C@@H](C(=O)N2CCC[C@H]2c2nc(-c3ccc([C@H]4CC[C@H](NC(=O)c5cnccn5)CC4)cc3)c[nH]2)c2ccccc2)C1`, the apparent permeability coefficient (Papp) (in general, the rate of passage across a membrane or cell layer, normalised by area and donor concentration) in data set [1] is 3 ×10⁻⁶ cm/s. Moreover, the solubility (commonly the dissolved amount per volume that the medium holds) in [2] worked out at 197 µM (≈ 153 µg/mL). Besides, the pEC50 (usually the EC50 on a negative log10 scale, so that one unit is a factor of ten) was 9.01 at Nonstructural protein 5A [3] and 11.25 at Nonstructural protein 5A [5]. Besides, the bioavailability (as a rule, the share of a dose that reaches the circulation, judged against a reference dose that is usually intravenous) in data set [4] came to 11%.
For the molecule `CCCC#CCOC(=O)N[C@@H]1CCN(C(=O)N[C@@H](C(=O)N2CCC[C@H]2c2nc(-c3ccc([C@H]4CC[C@H](NC(=O)c5cnccn5)CC4)cc3)c[nH]2)c2ccccc2)C1`, the Papp in [1] was found to be 1.7 ×10⁻⁶ cm/s. The molecule also yielded a solubility in data set [2] of 135 µM (≈ 106 µg/mL). Moreover, the pEC50 at Nonstructural protein 5A [3] was 9.57; at Nonstructural protein 5A [5] it was 10.89.
For `CC#CCOC(=O)N[C@@H]1CCN(C(=O)N[C@@H](C(=O)N2CCC[C@H]2c2nc(-c3ccc([C@H]4CC[C@H](NC(=O)c5cnccn5)CC4)cc3)c[nH]2)c2ccccc2)C1`, in that order: 2.1 ×10⁻⁶ cm/s, 462 µM (≈ 350 µg/mL), 8.68 and 10.55.
On to `CC(C)C#CCOC(=O)N[C@@H]1CCN(C(=O)N[C@@H](C(=O)N2CCC[C@H]2c2nc(-c3ccc([C@H]4CC[C@H](NC(=O)c5cnc(CO)cn5)CC4)cc3)c[nH]2)c2ccccc2)C1`, for which the apparent permeability coefficient (Papp) in [1] is 1.4 ×10⁻⁶ cm/s. The amount in solution in [2] (solubility) came to 190 µM (≈ 155 µg/mL). Further, the results for the negative logarithm of the EC50 (pEC50) on Nonstructural protein 5A [3] and at Nonstructural protein 5A [5] were 9.92 and 10.77, respectively. Moreover, in [4], the bioavailability was 18%.
For the molecule `CC(C)(C)C#CCOC(=O)N[C@@H]1CCN(C(=O)N[C@@H](C(=O)N2CCC[C@H]2c2nc(-c3ccc([C@H]4CC[C@H](NC(=O)c5cnc(CO)cn5)CC4)cc3)c[nH]2)c2ccccc2)C1`, the apparent permeability coefficient (Papp) in data set [1] is 1 ×10⁻⁶ cm/s. This molecule yielded a solubility in data set [2] of 132 µM (≈ 110 µg/mL). Moreover, the pEC50 was more than 11.00 on Nonstructural protein 5A [6]; 9.74 at Nonstructural protein 5A [7]; 7.82 at Nonstructural protein 5A [8]; 10.23 on Nonstructural protein 5A [3]; more than 11.00 on Nonstructural protein 5A [9]; 7.77 in data set [10]. Besides, the pEC50 on Nonstructural protein 5A [5] is 10.89. This molecule also displayed a bioavailability in data set [4] of 32%.
On to `CCC#CCOC(=O)N[C@@H]1CCN(C(=O)N[C@@H](C(=O)N2CCC[C@H]2c2nc(-c3ccc([C@H]4CC[C@H](NC(=O)c5cnccn5)CC4)cc3)c[nH]2)c2ccccc2)C1`, for which, in data set [1], the Papp came out at 3.1 ×10⁻⁶ cm/s. Also, the solubility in data set [2] amounted to 336 µM (≈ 259 µg/mL). The values for the negative logarithm of the EC50 (pEC50) at Nonstructural protein 5A [3] and on Nonstructural protein 5A [5] were 9.41 and 10.74, respectively.
Turning to `CC(C)(C)C#CCOC(=O)N[C@@H]1CCN(C(=O)N[C@@H](C(=O)N2CCC[C@H]2c2nc(-c3ccc([C@H]4CC[C@H](NC(=O)c5cnccn5)CC4)cc3)c[nH]2)c2ccccc2)C1`, in data set [1], the apparent permeability (Papp) came out at 1.1 ×10⁻⁶ cm/s. The same molecule registered a solubility in data set [2] of 142 µM (≈ 114 µg/mL). In addition, the negative-log EC50 (pEC50) is 9.89 on Nonstructural protein 5A [3] and more than 11.00 at Nonstructural protein 5A [5]. The molecule further came in with a bioavailability in data set [4] of 5.3%.
In the case of `CC(C)C#CCOC(=O)N[C@@H]1CCN(C(=O)N[C@@H](C(=O)N2CCC[C@H]2c2nc(-c3ccc([C@H]4CC[C@H](NC(=O)c5cnccn5)CC4)cc3)c[nH]2)c2ccccc2)C1`, the Papp in [1] worked out at 1.6 ×10⁻⁶ cm/s. In data set [2], this molecule displayed a solubility of 246 µM (≈ 193 µg/mL). The negative logarithm of the EC50 (pEC50) is 9.74 on Nonstructural protein 5A [3] and more than 11.00 on Nonstructural protein 5A [5]. Moreover, the bioavailability in data set [4] was determined as 10%.
As for `COC1CCC(C(=O)N[C@H]2CC[C@H](c3ccc(-c4c[nH]c([C@@H]5CCCN5C(=O)[C@H](NC(=O)N5CC[C@@H](NC(=O)OCC6CCCCC6)C5)c5ccccc5)n4)cc3)CC2)CC1` (stereo not given in full), in [1], the Papp is 0.23 ×10⁻⁶ cm/s. Also, in data set [2], the concentration in solution (solubility) came to 108 µM (≈ 90.3 µg/mL). Besides, the values for the pEC50 at Nonstructural protein 5A [3] and on Nonstructural protein 5A [5] were 10.41 and 10.80, respectively.
On to `O=C(N[C@@H]1CCN(C(=O)N[C@@H](C(=O)N2CCC[C@H]2c2nc(-c3ccc([C@H]4CC[C@H](NC(=O)c5cnccn5)CC4)cc3)c[nH]2)c2ccccc2)C1)OCC1CCCCC1`, for which the apparent permeability (Papp) in [1] was 0.85 ×10⁻⁶ cm/s. Besides, the concentration in solution in data set [2] (solubility) was 76 µM (≈ 61 µg/mL). The pEC50 at Nonstructural protein 5A [3] was 9.46; at Nonstructural protein 5A [5] it was 11.19. Further, the bioavailability in data set [4] was found to be 4.9%.
With `COC1CCC(C(=O)N[C@H]2CC[C@H](c3ccc(-c4c[nH]c([C@@H]5CCCN5C(=O)[C@H](NC(=O)N5CC[C@@H](NC(=O)OCc6ccccc6)C5)c5ccccc5)n4)cc3)CC2)CC1` (stereo not given in full), the Papp in data set [1] was less than 0.1 ×10⁻⁶ cm/s. In [2], the solubility stood at 193 µM (≈ 160 µg/mL). Moreover, the pEC50 was 9.77 on Nonstructural protein 5A [3] and 10.72 at Nonstructural protein 5A [5]. The molecule also had a bioavailability in data set [4] of 1.4%.
For `COC1CCN(C(=O)N[C@H]2CC[C@H](c3ccc(-c4c[nH]c([C@@H]5CCCN5C(=O)[C@H](NC(=O)N5CC[C@@H](NC(=O)OCc6ccccc6)C5)c5ccccc5)n4)cc3)CC2)CC1`, the Papp in data set [1] was less than 0.1 ×10⁻⁶ cm/s. The molecule also had a solubility in data set [2] of 222 µM (≈ 184 µg/mL). For the same molecule, the pEC50 was 9.82 at Nonstructural protein 5A [3] and 10.39 at Nonstructural protein 5A [5].
For the molecule `CC#CCCOC(=O)N[C@@H]1CCN(C(=O)N[C@@H](C(=O)N2CCC[C@H]2c2nc(-c3ccc([C@H]4CC[C@H](NC(=O)c5cnccn5)CC4)cc3)c[nH]2)c2ccccc2)C1`, the Papp in data set [1] is 2.1 ×10⁻⁶ cm/s. The molecule further came in with a solubility in data set [2] of 352 µM (≈ 272 µg/mL). Also, the negative-log EC50 (pEC50) was 8.47 on Nonstructural protein 5A [3] and more than 11.00 at Nonstructural protein 5A [5].
For the molecule `COC(=O)N[C@H](C(=O)N1CCC[C@H]1c1ncc(-c2ccc(-c3ccc(-c4cnc([C@@H]5CCCN5C(=O)[C@@H](NC(=O)OC)C(C)C)[nH]4)cc3)cc2)[nH]1)C(C)C` [DACLATASVIR], the pEC50 is 10.30 on Nonstructural protein 5A [11]; 9.84 at Nonstructural protein 5A [6]; 7.21 on Nonstructural protein 5A [7]; 5.90 at Nonstructural protein 5A [8]; 10.15 at Nonstructural protein 5A [9]; 5.91 in [10].
